From patent publication US20110086923A1, “Method to increase oxygen in male and female sexual organs through the topical use of perfluorocarbons” (priority 2009, published 2011)

Test: Physical properties of F-tert-butylcyclohexane
Format: physicochemical
Description: Oxycyte™ is a perfluorocarbon emulsion oxygen carrier. The active ingredient in Oxycyte™, perfluoro(tert-butylcyclohexane) (C10F20, MW-500), also known as F-tert-butylcyclohexane or “FtBu”, is a saturated alicyclic PFC.
Oxycyte™ can be used as a PFC composition in the methods and uses described herein. Physical properties of F-tert-butylcyclohexane are as follows: […]

FC(F)(F)C(C(F)(F)F)(C(F)(F)F)C1(F)C(F)(F)C(F)(F)C(F)(F)C(F)(F)C1(F)F [Perfluoro(tert-butylcyclohexane), perfluoro(tert-butylcyclohexane)]
Density: 1.97 g/mL
Kinematic Viscosity: 5.378 cP
lipophilicity: non-lipophilic
water solubility: non-water soluble
Vapor Pressure @ 25° C. (25° C.): 3.8 mmHg
Vapor Pressure @ 37° C. (37° C.): 4.4 mmHg
